Key:
[1] = tested on: Hepatitis C virus subtype 1a; test: Inhibition of NS5A in HCV genotype 1a assessed as reduction in replicon RNA level after 3 days by cell based RT-PCR method
[2] = tested on: Hepatitis C virus subtype 2b; test: Inhibition of NS5A in HCV genotype 2b assessed as reduction in replicon RNA level after 3 days by cell based RT-PCR method
[3] = tested on: T1, Nonstructural protein 5A (Hepatitis C virus), Q5L478 [Y93H]; test: Inhibition of NS5A Y93H mutant in HCV genotype 1a assessed as reduction in replicon RNA level after 3 days by cell based RT-PCR method; conditions: Hepatitis C virus subtype 1a
T1 sequence (whole entry): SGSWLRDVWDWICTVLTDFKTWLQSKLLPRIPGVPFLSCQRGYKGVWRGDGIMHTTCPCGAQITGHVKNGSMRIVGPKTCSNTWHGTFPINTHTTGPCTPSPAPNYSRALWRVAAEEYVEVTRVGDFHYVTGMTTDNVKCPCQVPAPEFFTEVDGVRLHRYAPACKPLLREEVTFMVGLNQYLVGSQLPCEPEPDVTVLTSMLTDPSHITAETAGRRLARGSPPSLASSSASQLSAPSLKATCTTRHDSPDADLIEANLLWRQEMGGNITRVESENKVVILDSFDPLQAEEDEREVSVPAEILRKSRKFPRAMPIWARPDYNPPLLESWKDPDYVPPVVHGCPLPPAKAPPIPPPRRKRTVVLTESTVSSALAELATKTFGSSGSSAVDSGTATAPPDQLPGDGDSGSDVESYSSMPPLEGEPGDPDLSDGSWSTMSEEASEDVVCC

[4] = tested on: Hepatitis C virus subtype 1a; test: Selectivity ratio of EC90 for NS5A L31V mutant in HCV genotype 1a to EC90 for NS5A in HCV genotype 1a
[5] = tested on: Nonstructural protein 5A (Hepatitis C virus), Q5L478 [UNDEFINED MUTATION]; test: Inhibition of NS5A L31V mutant in HCV genotype 1a assessed as reduction in replicon RNA level after 3 days by cell based RT-PCR method; conditions: Hepatitis C virus subtype 1a
[6] = Selectivity ratio of EC90 for NS5A in HCV genotype 2b to EC90 for NS5A in HCV genotype 1a
[7] = tested on: Hepatitis C virus subtype 1a; test: Selectivity ratio of EC90 for NS5A Y93H mutant in HCV genotype 1a to EC90 for NS5A in HCV genotype 1a
[8] = tested on: Hepatitis C virus subtype 3a; test: Inhibition of NS5A in HCV genotype 3a assessed as reduction in replicon RNA level after 3 days by cell based RT-PCR method

| Structure (SMILES) | EC90 [1] [pM] | EC90 [2] [pM] | EC90 [3] [pM] | Selectivity ratio [4] | EC90 [5] [pM] | Selectivity ratio [6] | Selectivity ratio [7] | EC90 [8] [pM] |
| --- | --- | --- | --- | --- | --- | --- | --- | --- |
| COC(=O)N[C@H](C(=O)N1CCC[C@H]1c1ncc(-c2ccc3c(c2)cc2n3C(c3cccc(OC)c3)Oc3cc(-c4cnc([C@@H]5C[C@@H](F)CN5C(=O)[C@@H](NC(=O)OC)C(C)C)[nH]4)ccc3-2)[nH]1)C(C)C (some centres not stated) | < 20 | 60800 | 19800 | > 41 | 810 | > 3040 | > 990 | – |
| COC(=O)N[C@H](C(=O)N1CCC[C@H]1c1ncc(-c2ccc3c(c2)cc2n3C(c3cccc(OC)c3)Oc3cc(-c4cnc([C@@H]5C[C@@H](F)CN5C(=O)[C@@H](NC(=O)OC)C(C)C)[nH]4)cc(F)c3-2)[nH]1)C(C)C (some centres not stated) | < 2 | 18800 | 550 | – | 340 | – | – | 130 |
| COC(=O)N[C@H](C(=O)N1C[C@@H](OC)C[C@H]1c1ncc(-c2cc(F)c3c(c2)OC(c2cccc(OC)c2)n2c-3cc3cc(-c4cnc([C@@H]5C[C@H](OC)CN5C(=O)[C@@H](NC(=O)OC)C(C)C)[nH]4)ccc32)[nH]1)C(C)C (some centres not stated) | 17 | 5740 | 8870 | – | 40 | – | – | 710 |
| COC(=O)N[C@H](C(=O)N1CCC[C@H]1c1ncc(-c2cc(F)c3c(c2)OC(c2cccc(OC)c2)n2c-3cc3cc(-c4cnc([C@@H]5C[C@H]6C[C@H]6N5C(=O)[C@@H](NC(=O)OC)C(C)C)[nH]4)ccc32)[nH]1)C(C)C (some centres not stated) | 7 | 19400 | 1640 | – | 84 | – | – | 150 |
| COC(=O)N[C@H](C(=O)N1C[C@H](OC)C[C@H]1c1ncc(-c2cc(F)c3c(c2)OC(c2cccc(OC)c2)n2c-3cc3cc(-c4cnc([C@@H]5C[C@@H](OC)CN5C(=O)[C@@H](NC(=O)OC)C(C)C)[nH]4)ccc32)[nH]1)C(C)C (some centres not stated) | 15 | 90700 | 790 | – | 190 | – | – | 5520 |
| COC(=O)N[C@H](C(=O)N1[C@@H]2CC(F)(F)[C@@H]2C[C@H]1c1ncc(-c2cc(F)c3c(c2)OC(c2cccc(OC)c2)n2c-3cc3cc(-c4cnc([C@@H]5C[C@@H]6[C@@H](CC6(F)F)N5C(=O)[C@@H](NC(=O)OC)C(C)C)[nH]4)ccc32)[nH]1)C(C)C (some centres not stated) | 17 | 58000 | 52600 | – | 78 | – | – | 290 |
| COC(=O)N[C@H](C(=O)N1CC2(C[C@H]1c1ncc(-c3cc(F)c4c(c3)OC(c3cccc(OC)c3)n3c-4cc4cc(-c5cnc([C@@H]6CC7(CN6C(=O)[C@@H](NC(=O)OC)C(C)C)OCCCO7)[nH]5)ccc43)[nH]1)OCCCO2)C(C)C (mixture of isomers) | 18 | 114000 | 440 | – | 200 | – | – | 15000 |
| COC(=O)N[C@H](C(=O)N1CCC[C@H]1c1ncc(-c2cc(F)c3c(c2)OC(c2ccccc2)n2c-3cc3cc(-c4cnc([C@H]5[C@@H]6[C@H](CN5C(=O)[C@@H](NC(=O)OC)C(C)C)C6(C)C)[nH]4)ccc32)[nH]1)C(C)C (mixture of isomers) | 20 | 337000 | > 100000 | – | 21000 | – | – | > 10000 |
| COC(=O)N[C@H](C(=O)N1CC[C@H](OC)[C@H]1c1ncc(-c2cc(F)c3c(c2)OC(c2cccc(OC)c2)n2c-3cc3cc(-c4cnc([C@@H]5[C@@H](OC)CCN5C(=O)[C@@H](NC(=O)OC)C(C)C)[nH]4)ccc32)[nH]1)C(C)C (some centres not stated) | 2670 | 322000 | 3860 | – | 24500 | – | – | 30000 |
| COC(=O)N[C@H](C(=O)N1CCC[C@H]1c1ncc(-c2cc(F)c3c(c2)OC(c2cccc(OC)c2)n2c-3cc3cc(-c4cnc([C@@H]5[C@H]6CC[C@H](C6)N5C(=O)[C@@H](NC(=O)OC)C(C)C)[nH]4)ccc32)[nH]1)C(C)C (some centres not stated) | 2 | 51800 | 26100 | – | 900 | – | – | 920 |

Source: ChEMBL document CHEMBL3853354, “Structure-activity relationships of proline modifications around the tetracyclic-indole class of NS5A inhibitors” (Bioorg Med Chem Lett, 2016)
